Results taken from US7767696B2, “Pyrazole derivatives” (Merck Patent GmbH, priority 2005, dated 2010).

How the values were obtained:
TIE-2 = TIE-2 (Homo sapiens, UniProt Q02763); experiment: TIE-2 kinase flashplate assay (phosphorylation of poly(Glu, Tyr) with 33P-ATP); format: biochemical; conditions: read-out: Kinase-Inhibiting Activities IC50 TIE-2
Experimental: The TIE-2 tests can be carried out, for example, analogously to the methods indicated in WO 02/44156.
The assay determines the inhibiting activity of the substances to be tested in the phosphorylation of the substrate poly(Glu, Tyr) by Tie-2 kinase in the presence of radioactive ^33P-ATP. The phosphorylated substrate binds to the surface of a “flashplate” microtitre plate during the incubation time. After removal of the reaction mixture, the microtitre plate is washed a number of times and the radioactivity on its surface is subsequently measured. An inhibiting effect of the substances to be measured results in lower radioactivity compared with an undisturbed enzymatic reaction.

VEGFR (KDR) = biological target: T1, VEGFR (KDR) (Homo sapiens, UniProt P35968); experiment: VEGF receptor kinase assay (33P incorporation into pEY substrate); format: biochemical; conditions: read-out: Kinase-Inhibiting Activities IC50 VEGFR
T1 construct: cloning the cytoplasmic domain of the KDR kinase as an in frame fusion at the carboxyl terminus of the GST gene; made in house; host or cells: Spodoptera frugiperda (Sf21) insect cells, baculovirus vector pAcG2T
Experimental: VEGF receptor kinase activity is measured by incorporation of radiolabelled phosphate into 4:1 polyglutamic acid/tyrosine substrate (pEY). The phosphorylated pEY product is trapped on a filter membrane and the incorporation of radiolabelled phosphate is quantified by scintillation counting.
The intracellular tyrosine kinase domains of human KDR (Terman, B. I. et al. Oncogene (1991) Vol. 6, pp. 1677-1683.) and Flt-1 (Shibuya, M. et al. Oncogene (1990) Vol. 5, pp. 519-524) were cloned as glutathione S-transferase (GST) gene fusion proteins. This was accomplished by cloning the cytoplasmic domain of the KDR kinase as an in frame fusion at the carboxyl terminus of the GST gene. Soluble recombinant GST-kinase domain fusion proteins were expressed in Spodoptera frugiperda (Sf21) insect cells (Invitrogen) using a baculovirus expression vector (pAcG2T, Pharmingen).
Method B—VEGF Receptor Kinase Assay
1. Add 5 μl of inhibitor or control to the assay in 50% DMSO.
2. Add 35 μl of reaction mixture containing 5 μl of 10× reaction buffer, 5 μl of 25 mM ATP/10 μCi[^33P]ATP (Amersham) and 5 μl of 10× substrate.
3. Start the reaction by the addition of 10 μl of KDR (25 nM) in enzyme dilution buffer.
4. Mix and incubate at room temperature for 15 minutes.
5. Stop the reaction by the addition of 50 μl of stop solution.
6. Incubate at 4° C. for 15 minutes.
7. Transfer a 90 μl aliquot to filter plate.
8. Aspirate and wash 3 times with wash solution.
9. Add 30 μl of scintillation cocktail, seal plate and count in a Wallace Microbeta scintillation counter.

Chain of TIE-2 (Q02763 23-1124, species assumed): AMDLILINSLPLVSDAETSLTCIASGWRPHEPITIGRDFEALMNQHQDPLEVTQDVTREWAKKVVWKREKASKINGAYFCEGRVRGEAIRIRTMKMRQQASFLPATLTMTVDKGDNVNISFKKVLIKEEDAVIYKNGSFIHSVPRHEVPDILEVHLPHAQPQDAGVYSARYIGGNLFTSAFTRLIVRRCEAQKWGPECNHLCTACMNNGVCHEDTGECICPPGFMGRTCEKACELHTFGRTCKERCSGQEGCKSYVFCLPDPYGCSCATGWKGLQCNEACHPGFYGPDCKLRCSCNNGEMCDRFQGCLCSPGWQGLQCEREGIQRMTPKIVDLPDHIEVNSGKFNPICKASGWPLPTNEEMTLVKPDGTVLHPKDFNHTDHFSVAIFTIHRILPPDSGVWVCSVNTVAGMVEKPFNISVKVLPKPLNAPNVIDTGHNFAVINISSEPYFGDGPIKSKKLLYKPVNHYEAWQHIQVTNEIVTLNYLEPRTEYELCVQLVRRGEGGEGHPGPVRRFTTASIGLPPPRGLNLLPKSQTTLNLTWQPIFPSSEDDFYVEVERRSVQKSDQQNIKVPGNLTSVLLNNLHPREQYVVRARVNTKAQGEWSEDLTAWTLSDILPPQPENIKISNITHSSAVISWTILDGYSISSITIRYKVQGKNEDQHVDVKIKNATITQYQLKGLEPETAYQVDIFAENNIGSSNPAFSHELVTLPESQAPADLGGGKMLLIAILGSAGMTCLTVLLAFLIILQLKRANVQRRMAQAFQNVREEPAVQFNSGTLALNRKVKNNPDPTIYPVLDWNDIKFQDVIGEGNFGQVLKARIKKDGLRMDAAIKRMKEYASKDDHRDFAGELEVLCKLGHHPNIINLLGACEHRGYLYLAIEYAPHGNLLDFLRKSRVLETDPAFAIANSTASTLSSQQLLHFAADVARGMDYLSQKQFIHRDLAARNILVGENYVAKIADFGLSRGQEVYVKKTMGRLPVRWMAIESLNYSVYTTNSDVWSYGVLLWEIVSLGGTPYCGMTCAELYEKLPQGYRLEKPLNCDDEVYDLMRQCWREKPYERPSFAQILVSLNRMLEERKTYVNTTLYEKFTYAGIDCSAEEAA
T1 sequence (P35968 786-1356 limits assumed): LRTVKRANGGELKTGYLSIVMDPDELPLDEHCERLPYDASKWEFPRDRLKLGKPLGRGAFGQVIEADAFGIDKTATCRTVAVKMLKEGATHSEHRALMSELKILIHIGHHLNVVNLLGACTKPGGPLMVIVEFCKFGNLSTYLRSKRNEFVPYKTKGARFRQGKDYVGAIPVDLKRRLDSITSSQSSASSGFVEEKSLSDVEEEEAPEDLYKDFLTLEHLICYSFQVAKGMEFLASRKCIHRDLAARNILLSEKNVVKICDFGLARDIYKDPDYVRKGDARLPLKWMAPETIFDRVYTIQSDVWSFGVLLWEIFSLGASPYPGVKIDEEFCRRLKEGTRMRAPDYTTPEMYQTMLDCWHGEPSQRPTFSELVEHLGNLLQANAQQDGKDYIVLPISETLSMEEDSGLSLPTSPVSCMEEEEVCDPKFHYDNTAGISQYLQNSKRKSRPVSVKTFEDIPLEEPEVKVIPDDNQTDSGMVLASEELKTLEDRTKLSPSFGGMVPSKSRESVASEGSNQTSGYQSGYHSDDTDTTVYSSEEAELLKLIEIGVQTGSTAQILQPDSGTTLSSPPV

SMILES	IC50 (TIE-2)	IC50 (VEGFR (KDR))
CNC(=O)c1cc(Oc2ccc(NC(=O)Nc3cc(C(C)(C)C)nn3-c3ccc(F)cc3)cc2)ccn1 [Compound 1, 1-[4-(2-methylaminocarbonylpyridin-4-yloxy)phenyl]-3-[5-tert-butyl-2-(4-fluorophenyl)-2H-pyrazol-3-yl]urea]	6.5 nM	110 nM
CNC(=O)c1cc(Oc2ccc(NC(=O)Nc3cc(-c4ccco4)nn3-c3ccc(F)cc3)cc2)ccn1 [Compound 3, 1-[4-(2-Methylaminocarbonylpyridin-4-yloxy)phenyl]-3-[5-(furan-2-yl)-2-(4-fluorophenyl)-2H-pyrazol-3-yl]urea]	9.7 nM	74.8 nM
CNC(=O)c1cc(Oc2ccc(NC(=O)Nc3cc(C(C)(C)C)nn3-c3ccc(C)cc3)cc2)ccn1 [Compound 8, 1-[4-(2-Methylaminocarbonylpyridin-4-yloxy)phenyl]-3-[5-tert-butyl-2-(p-tolyl)-2H-pyrazol-3-yl]urea]	7.2 nM	58 nM

Compounds with a lower IC50 (TIE-2), results first:

IC50 (TIE-2)	IC50 (VEGFR (KDR))	SMILES
4.3 nM	33.5 nM	CNC(=O)c1cc(Oc2ccc(NC(=O)Nc3cc(-c4ccco4)nn3-c3ccc(C)cc3)cc2)ccn1 [Compound 2, 1-[4-(2-methylaminocarbonylpyridin-4-yloxy)phenyl]-3-[5-(furan-2-yl)-2-(p-tolyl)-2H-pyrazol-3-yl]urea]
3.2 nM	134 nM	CNC(=O)c1cc(Oc2ccc(NC(=O)Nc3cc(C(C)(C)C)nn3-c3cccc(C(F)(F)F)c3)cc2)ccn1 [Compound 11, 1-[4-(2-Methylaminocarbonylpyridin-4-yloxy)phenyl]-3-[5-tert-butyl-2-(3-trifluoromethylphenyl)-2H-pyrazol-3-yl]urea]
